Format in all cases: cell-based
For test [1], the system named is PMN's (polymorphonuclear leukocytes). Put plainly: Neutrophil oxidative burst. The conditions noted are these: Leukocyte, 40 min, read-out: Neutrophil oxidative burst Rel EC50 range, PMN from buffy coats, 40 min at RT, hydroethidine fluorescence; normalized to 5×10^−7 M PEP0005. The gist of the method:
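Human buffy-coat neutrophils (2.5×10^5/well) in HBSS with 0.1% BSA, 5 mM glucose treated with compound premixed with 10 μM hydroethidine for 40 min at RT; fluorescence read at 485/579 nm. Normalized to 5×10^−7 M PEP0005; Rel EC50 is midway between fitted top and bottom, Abs EC50 gives 50% of PEP0005 maximum.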

Test [2] has as its system Primary human epidermal keratinocytes, HeKa. The test can be described thus: HeKa cytokine release (IL-8). The conditions noted are these: Homo sapiens, HEKa, 6 h, read-out: HeKa cytokine release (IL-8) Rel EC50 range. The procedure, abridged:
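Seeded cells exposed to compound dilutions for 6 h at 37° C; IL-8 in supernatant quantified by MSD sandwich electrochemiluminescence immunoassay. Effects normalized to positive control (1.5×10^−7 M PEP0005), four-parameter sigmoidal fit; Rel EC50 is concentration midway between fitted top and bottom.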

The next test deals with HeLa cells. The test can be described thus: Necrosis assay. The conditions noted are these: Homo sapiens, HeLa, 0.5 h, read-out: HeLa necrosis EC50 range. The procedure, abridged:
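HeLa cells treated with compound at 10 μM to 400 μM (final) for 30 min at 37° C., viability then measured by PrestoBlue fluorescence (ex 535/em 630 nm). Normalized to 1% DMSO and 400 μM ingenol mebutate controls; AbsEC50 from four-parameter sigmoidal fit.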

This is an account of results in patent US9708286B2, “Ingenol-3-acylates III and ingenol-3-carbamates” (LEO Laboratories Limited, priority 2010, dated 2017).

Structures are written as SMILES. Bounds are passed on as bounds.

As for `CC1=C[C@]23C(=O)[C@@H](C=C(CO)[C@@H](O)[C@]2(O)[C@H]1OC(=O)c1c(C)cn(C)c1C)[C@H]1[C@@H](C[C@H]3C)C1(C)C` [Compound 541, Ingenol 3-(1,2,4-trimethylpyrrole-3-carboxylate)], the EC50 – broadly, the concentration needed to bring the measured effect to its halfway point – was less than 20 nM in test [1], less than 20 nM in test [2] and 150000 to 350000 nM in the test with HeLa cells.

Regarding `CC1=C[C@]23C(=O)[C@@H](C=C(CO)[C@@H](O)[C@]2(O)[C@H]1OC(=O)c1c(C)cc(C)n1C)[C@H]1[C@@H](C[C@H]3C)C1(C)C` [Compound 542, Ingenol 3-(1,3,5-trimethylpyrrole-2-carboxylate)], the EC50 in test [1] was less than 20 nM; in test [2] it was less than 20 nM; in the test with HeLa cells, less than 150000 nM.

Consider `CC1=C[C@]23C(=O)[C@@H](C=C(CO)[C@@H](O)[C@]2(O)[C@H]1OC(=O)C1N(C(=O)OC(C)(C)C)CCC1(C)C)[C@H]1[C@@H](C[C@H]3C)C1(C)C` (stereo partly drawn) [Compound 544, Ingenol 3-(1-tert-butyloxycarbonyl-3,3-dimethylpyrrolidine-2-carboxylate)], for which the EC50 in test [1] is greater than 100 nM; in test [2], greater than 100 nM; in the test with HeLa cells it was 150000 to 350000 nM.

As to `CC1=C[C@]23C(=O)[C@@H](C=C(CO)[C@@H](O)[C@]2(O)[C@H]1OC(=O)c1c(C)nn(C(C)C)c1C)[C@H]1[C@@H](C[C@H]3C)C1(C)C` [Compound 546, Ingenol 3-(1-isopropyl-3,5-dimethyl-pyrazole-4-carboxylate)], the EC50 in test [1] is less than 20 nM; in test [2], less than 20 nM; in the test on HeLa cells it was 150000 to 350000 nM.

`CCc1onc(C(C)C)c1C(=O)O[C@H]1C(C)=C[C@]23C(=O)[C@@H](C=C(CO)[C@@H](O)[C@]12O)[C@H]1[C@@H](C[C@H]3C)C1(C)C` [Compound 547, Ingenol 3-(5-ethyl-3-isopropyl-isoxazole-4-carboxylate)]: the results for the EC50 (in test [1]; in test [2]; in the test on HeLa cells) were 20 to 100 nM, less than 20 nM and less than 150000 nM, respectively.

Turning to `CC1=C[C@]23C(=O)[C@@H](C=C(CO)[C@@H](O)[C@]2(O)[C@H]1OC(=O)c1c2ccccc2nn1C)[C@H]1[C@@H](C[C@H]3C)C1(C)C` [Compound 548, Ingenol 3-(2-methylindazole-3-carboxylate)], the EC50 is 20 to 100 nM in test [1], less than 20 nM in test [2] and 150000 to 350000 nM in the test with HeLa cells.

Consider `CC1=C[C@]23C(=O)[C@@H](C=C(CO)[C@@H](O)[C@]2(O)[C@H]1OC(=O)C1=C(C)C(=O)OC12CCCCC2)[C@H]1[C@@H](C[C@H]3C)C1(C)C` [Compound 550, Ingenol 3-(2-methyl-3-oxo-4-oxaspiro[4.5]dec-1-ene-1-carboxylate)], for which the EC50 in test [1] is less than 20 nM; in test [2], less than 20 nM; in the test on HeLa cells, less than 150000 nM.

Consider `CC1=C[C@]23C(=O)[C@@H](C=C(CO)[C@@H](O)[C@]2(O)[C@H]1OC(=O)c1c(C)nsc1C)[C@H]1[C@@H](C[C@H]3C)C1(C)C` [Compound 552, Ingenol 3-(3,5-dimethylisothiazole-4-carboxylate)], for which the EC50 in test [1] was 20 to 100 nM; in test [2], 20 to 100 nM; with HeLa cells, 150000 to 350000 nM.

Consider `CC1=C[C@]23C(=O)[C@@H](C=C(CO)[C@@H](O)[C@]2(O)[C@H]1OC(=O)c1c(C)nsc1I)[C@H]1[C@@H](C[C@H]3C)C1(C)C` [Compound 553, Ingenol 3-(5-iodo-3-methyl-isothiazole-4-carboxylate)], for which the EC50 in test [1] is less than 20 nM; in test [2] it was less than 20 nM; in the test on HeLa cells, 150000 to 350000 nM.

For `COc1ccc(-c2cnn(C)c2C(=O)O[C@H]2C(C)=C[C@]34C(=O)[C@@H](C=C(CO)[C@@H](O)[C@]23O)[C@H]2[C@@H](C[C@H]4C)C2(C)C)cc1` [Compound 554, Ingenol 3-(4-(4-methoxyphenyl)-2-methyl-pyrazole-3-carboxylate)], the EC50 was less than 20 nM in test [1], less than 20 nM in test [2] and less than 150000 nM in the test on HeLa cells.

Regarding `CC1=C[C@]23C(=O)[C@@H](C=C(CO)[C@@H](O)[C@]2(O)[C@H]1OC(=O)c1c(-c2ccccc2C)cnn1C)[C@H]1[C@@H](C[C@H]3C)C1(C)C` [Compound 555, Ingenol 3-(4-(2-methylphenyl)-2-methyl-pyrazole-3-carboxylate)], the EC50 was less than 20 nM in test [1], less than 20 nM in test [2] and less than 150000 nM with HeLa cells.

Regarding `CC1=C[C@]23C(=O)[C@@H](C=C(CO)[C@@H](O)[C@]2(O)[C@H]1OC(=O)c1c(-c2ccc(S(C)(=O)=O)cc2)cnn1C)[C@H]1[C@@H](C[C@H]3C)C1(C)C` [Compound 556, Ingenol 3-(2-methyl-4-(4-methylsulfonylphenyl)pyrazole-3-carboxylate)], the values for the half-maximal effective concentration (EC50) (in test [1]; in test [2]; in the test with HeLa cells) were 20 to 100 nM, 20 to 100 nM and 150000 to 350000 nM, respectively.

For `CC1=C[C@]23C(=O)[C@@H](C=C(CO)[C@@H](O)[C@]2(O)[C@H]1OC(=O)c1c(-c2ccccc2)cnn1C)[C@H]1[C@@H](C[C@H]3C)C1(C)C` [Compound 557, Ingenol 3-(2-methyl-4-phenyl-pyrazole-3-carboxylate)], the EC50 in test [1] is less than 20 nM; in test [2], less than 20 nM; in the test with HeLa cells, less than 150000 nM.

In the case of `CC1=C[C@]23C(=O)[C@@H](C=C(CO)[C@@H](O)[C@]2(O)[C@H]1OC(=O)c1c(C)nn(-c2ccccc2)c1C)[C@H]1[C@@H](C[C@H]3C)C1(C)C` [Compound 558, Ingenol 3-(3,5-dimethyl-1-phenyl-pyrazole-4-carboxylate)], the EC50 in test [1] is less than 20 nM; in test [2], less than 20 nM; in the test with HeLa cells it was less than 150000 nM.

With `CC1=C[C@]23C(=O)[C@@H](C=C(CO)[C@@H](O)[C@]2(O)[C@H]1OC(=O)c1c(-c2ccccc2)nn(C)c1C)[C@H]1[C@@H](C[C@H]3C)C1(C)C` [Compound 559, Ingenol 3-(1,5-dimethyl-3-phenyl-pyrazole-4-carboxylate)], the EC50 in test [1] is less than 20 nM; in test [2], less than 20 nM; in the test with HeLa cells, 150000 to 350000 nM.

For the molecule `CC1=C[C@]23C(=O)[C@@H](C=C(CO)[C@@H](O)[C@]2(O)[C@H]1OC(=O)c1c(C)nn(Cc2ccccc2)c1C)[C@H]1[C@@H](C[C@H]3C)C1(C)C` [Compound 560, Ingenol 3-(1-benzyl-3,5-dimethyl-pyrazole-4-carboxylate)], the EC50 in test [1] was less than 20 nM; in test [2], less than 20 nM; in the test on HeLa cells, less than 150000 nM.

On to `CC1=C[C@]23C(=O)[C@@H](C=C(CO)[C@@H](O)[C@]2(O)[C@H]1OC(=O)c1c2c(nn1C)CCCC2)[C@H]1[C@@H](C[C@H]3C)C1(C)C` [Compound 563, Ingenol 3-(2-methyl-4,5,6,7-tetrahydroindazole-3-carboxylate)], for which the results for the EC50 (in test [1]; in test [2]; with HeLa cells) were less than 20 nM, less than 20 nM and less than 150000 nM, respectively.

`CC1=C[C@]23C(=O)[C@@H](C=C(CO)[C@@H](O)[C@]2(O)[C@H]1OC(=O)c1c(C)n(C)c2ccccc12)[C@H]1[C@@H](C[C@H]3C)C1(C)C` [Compound 564, Ingenol 3-(1,2-dimethylindole-3-carboxylate)]: the concentration giving a half-maximal response (EC50) in test [1] is less than 20 nM; in test [2] it was less than 20 nM; in the test on HeLa cells it was less than 150000 nM.

Take `COc1ccc2c(c1)c(C(=O)O[C@H]1C(C)=C[C@]34C(=O)[C@@H](C=C(CO)[C@@H](O)[C@]13O)[C@H]1[C@@H](C[C@H]4C)C1(C)C)c(C)n2C` [Compound 565, Ingenol 3-(5-methoxy-1,2-dimethyl-indole-3-carboxylate)]: the 50% effective concentration (EC50) in test [1] was less than 20 nM; in test [2] it was less than 20 nM; with HeLa cells, less than 150000 nM.

For `CC1=C[C@]23C(=O)[C@@H](C=C(CO)[C@@H](O)[C@]2(O)[C@H]1OC(=O)c1c(C)nn(C)c1C)[C@H]1[C@@H](C[C@H]3C)C1(C)C` [Compound 566, Ingenol 3-(1,3,5-trimethylpyrazole-4-carboxylate)], the half-maximal effective concentration (EC50) in test [1] is 20 to 100 nM; in test [2], 20 to 100 nM; in the test with HeLa cells it was greater than 350000 nM.

On to `CC1=C[C@]23C(=O)[C@@H](C=C(CO)[C@@H](O)[C@]2(O)[C@H]1OC(=O)c1nonc1C)[C@H]1[C@@H](C[C@H]3C)C1(C)C` [Compound 567, Ingenol 3-(4-methyl-1,2,5-oxadiazole-3-carboxylate)], for which the EC50 in test [1] is 20 to 100 nM; in test [2], greater than 100 nM; in the test on HeLa cells, greater than 350000 nM.

Consider `COc1nc(C)c(C(=O)O[C@H]2C(C)=C[C@]34C(=O)[C@@H](C=C(CO)[C@@H](O)[C@]23O)[C@H]2[C@@H](C[C@H]4C)C2(C)C)s1` [Compound 568, Ingenol 3-(2-methoxy-4-methyl-thiazole-5-carboxylate)], for which the EC50 lay in the range of 20 to 100 nM in test [1], 20 to 100 nM in test [2] and 150000 to 350000 nM in the test on HeLa cells.

For the molecule `CC1=C[C@]23C(=O)[C@@H](C=C(CO)[C@@H](O)[C@]2(O)[C@H]1OC(=O)c1nn(C)cc1Br)[C@H]1[C@@H](C[C@H]3C)C1(C)C` [Compound 570, Ingenol 3-(4-bromo-1-methyl-pyrazole-3-carboxylate)], the EC50 in test [1] is 20 to 100 nM; in test [2], greater than 100 nM; with HeLa cells it was 150000 to 350000 nM.
